Broadly, the pIC50 is the negative decadic logarithm of the IC50, by convention in mol/L. The inhibition is the share of the control response that was lost under treatment.

Data on 41 compounds can be found in ChEMBL document CHEMBL3351804, “Development of 2-aryl substituted quinazolin-4(3H)-one, pyrido[4,3-d]pyrimidin-4(3H)-one and pyrido[2,3-d]pyrimidin-4(3H)-one derivatives as microsomal prostaglandin E(2) synthase-1 inhibitors” (Bioorg Med Chem Lett, 2014).

Assay [1] has as its target T1, Prostaglandin E synthase (Homo sapiens, UniProt O14684).
T1 sequence (O14684 whole entry): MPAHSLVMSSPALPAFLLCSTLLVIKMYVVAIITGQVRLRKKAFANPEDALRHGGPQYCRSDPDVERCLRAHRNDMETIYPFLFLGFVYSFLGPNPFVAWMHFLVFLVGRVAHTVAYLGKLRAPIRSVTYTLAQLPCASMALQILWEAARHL
Put plainly: Inhibition of mPGES-1 in human whole blood assessed as inhibition of LPS-induced PGE2 production incubated for 30 mins prior to LPS challenge measured after 20 to 24 hrs by LC/MS/MS analysis.

Assay [2] deals with T1, Prostaglandin E synthase. Kind of assay: Inhibition of mPGES-1 in human A549 cells assessed as inhibition of IL-1beta-induced PGE2 production incubated for 30 mins prior to IL-1beta challenge measured after 18 hrs by plate reader analysis. Type of assay: cell-based.
The target of assay [3] is T1, Prostaglandin E synthase. Put plainly: Inhibition of human recombinant mPGES-1 expressed in CHO cells using PGH2 as substrate incubated for 10 mins prior to substrate addition measured after 1 min.
Assay [4] is described as follows: Inhibition of guinea pig recombinant mPGES-1. Also noted: species or system Cavia porcellus.
Assay [5] has as its target T2, Prostaglandin E synthase (Homo sapiens) (UniProt O14684).
T2 sequence (whole entry): T1 sequence (O14684 whole entry)
Put plainly: Inhibition of human recombinant mPGES-1 expressed in CHO cells using PGH2 as substrate at 10 uM incubated for 10 mins prior to substrate addition measured after 1 min. The assay is classed as cell-based.

Assay [6] addresses T2, Prostaglandin E synthase (Homo sapiens). Kind of assay: Inhibition of human recombinant mPGES-1 expressed in CHO cells using PGH2 as substrate at 1 uM incubated for 10 mins prior to substrate addition measured after 1 min.
The target of assay [7] is T1, Prostaglandin E synthase. Kind of assay: Inhibition of mPGES-1 in human whole blood assessed as inhibition of LPS-induced PGE2 production after overnight incubation.
Assay [8] deals with T1, Prostaglandin E synthase. Kind of assay: Inhibition of mPGES-1 in human A549 cells assessed as inhibition of IL-1beta-induced PGE2 production incubated for 30 mins prior to IL-1beta challenge measured after 18 to 24 hrs. The assay is classed as cell-based.
Assay [9] addresses T1, Prostaglandin E synthase. Put plainly: Inhibition of mPGES-1 in human A549 cells using arachidonic acid as substrate assessed as inhibition of IL-1beta/TNF-alpha-induced PGE2 production incubated for 30 mins prior to substrate addition measured after 30 mins by EIA. The assay is classed as cell-based.
The target in assay [10] is T1, Prostaglandin E synthase. Kind of assay: Inhibition of human mPGES-1.
The target of assay [11] is T1, Prostaglandin E synthase. Put plainly: Inhibition of mPGES-1 in human A549 cells. The assay is classed as cell-based.

pIC50: −log10 of the molar value.

On to `Cc1nc(NC(=O)c2cc(CNC(=O)C(C)C)cnc2C(F)F)[nH]c1-c1ccc(C(F)(F)F)cc1`, for which the pIC50 in assay [1] and in assay [2] was 7.92 each time. Turning to `O=C(Nc1ccnc2c(Nc3ccc(C(F)(F)F)cc3)nsc12)c1c(F)cccc1Cl`, the pIC50 in assay [3] was 6.80. Consider `CC(C)C(=O)NCc1ccc(Cl)c(-c2nc3ccc(-c4ccc(C(F)(F)F)cc4)cc3c(=O)[nH]2)c1`, for which the pIC50 in assay [3] was 7.26. For `N#Cc1cccc(C#N)c1-c1nc2c3ccc(Cl)cc3c3ccccc3c2[nH]1`, the pIC50 in assay [4] is 9.05.

Consider `CC(C)C(=O)NCc1ccc(Cl)c(-c2nc3cc(NC(=O)C4CC4)ccc3c(=O)[nH]2)c1`, for which the inhibition in assay [5] was 74%; in assay [6], 21%. `CC(C)C(=O)NCc1ccc(Cl)c(-c2nc3cc(Cl)c(C4CC4)cc3c(=O)[nH]2)c1`: the pIC50 in [3] is 7.49.

In the case of `CNC(=O)C1CCN(c2cc3c(=O)[nH]c(-c4cc(CNC(=O)C(C)C)ccc4Cl)nc3cc2Cl)CC1`, the inhibition was found to be 76% in [5] and 28% in assay [6]. Take `CC(C)C(=O)NCc1ccc(Cl)c(-c2nc3cc([N+](=O)[O-])ccc3c(=O)[nH]2)c1`: the pIC50 in assay [3] was 7.20.

As to `CC(C)C(=O)NCc1ccc(Cl)c(-c2nc3cc(Cl)c(N4CCNC(=O)C4)cc3c(=O)[nH]2)c1`, the inhibition in assay [5] is 79%; in [6], 30%. `CC(C)C(=O)NCc1ccc(Cl)c(-c2nc3cc(Cl)ccc3c(=O)[nH]2)c1`: the pIC50 in [3] was 7.38.

With `CC(C)C(=O)NCc1ccc(Cl)c(-c2nc3ccccc3c(=O)[nH]2)c1`, the inhibition turned out to be 67% in [5] and 17% in assay [6].

Turning to `CC(C)C(=O)NCc1ccc(Cl)c(-c2nc3cc(Cl)c(-c4ccc(C(F)(F)F)cc4)cc3c(=O)[nH]2)c1`, the pIC50 in assay [3] was 7.44.

Consider `CC(C)C(=O)NCc1ccc(Cl)c(-c2nc3cc(C4CC4)ccc3c(=O)[nH]2)c1`, for which, in assay [3], the pIC50 is 7.24.

Turning to `CC(C)C(=O)NCc1ccc(Cl)c(-c2nc3nc(-c4ccc(C(F)(F)F)cc4)ccc3c(=O)[nH]2)c1`, the figures for the pIC50 in assay [3], in assay [7] and in [8] were 8.00, 6.48 and 7.96, respectively. Turning to `CC(C)(C)C(=O)NCc1ccc(Cl)c(C(=O)Nc2ccc3cnn(-c4ccc(C(F)(F)F)cc4)c(=O)c3c2)c1`, the pIC50 in [3] was 8.30. In the case of `CC(C)C(=O)NCc1ccc(Cl)c(-c2nc3cc(Cl)c(N4CC[C@H](O)C4)cc3c(=O)[nH]2)c1`, the inhibition in assay [5] is 91%; in assay [6], 42%. Regarding `CC(C)C(=O)NCc1ccc(Cl)c(-c2nc3cc(C(N)=O)ccc3c(=O)[nH]2)c1`, the inhibition in [5] is 16%; in assay [6], 14%. In the case of `CC(C)C(=O)NCc1ccc(Cl)c(-c2nc3cc(-c4ccc(C(F)(F)F)nc4)ccc3c(=O)[nH]2)c1`, the pIC50 in assay [3] is 7.80; in assay [8], 7.64.

With `CC(=O)O[C@H]1CCN(c2cc3c(=O)[nH]c(-c4cc(CNC(=O)C(C)C)ccc4Cl)nc3cc2Cl)C1`, the pIC50 in [3] was 6.61. On to `CC(C)C(=O)NCc1ccc(Cl)c(-c2nc3cc(F)ccc3c(=O)[nH]2)c1`, for which the inhibition in assay [5] stood at 98%; in [6] it was 52%.

As for `O=C(Nc1ccc(C(F)(F)F)cn1)c1cccc(NC(=O)c2ccccc2C(F)(F)F)c1`, in [9], the pIC50 is 6.30.

In the case of `CC(C)C(=O)NCc1cnc(C(F)F)c(-c2nc3cc(-c4ccc(C(F)(F)F)cc4)ncc3c(=O)[nH]2)c1`, the pIC50 in assay [3] is 8.40; in assay [8] it was 6.95. For the compound `CC(=O)O[C@@H]1CCN(c2cc3c(=O)[nH]c(-c4cc(CNC(=O)C(C)C)ccc4Cl)nc3cc2Cl)C1`, the pIC50 in assay [3] was 6.61. Turning to `CC(C)C(=O)NCc1ccc(Cl)c(-c2nc3cc(Cl)c(N4CC(C(=O)NC(C)(C)C)C4)cc3c(=O)[nH]2)c1`, the pIC50 in assay [3] was 7.23. For `COc1ccc2c(=O)[nH]c(-c3cc(CNC(=O)C(C)C)ccc3Cl)nc2c1`, the pIC50 in [3] is 6.52. For the compound `CC(C)(C)C(=O)NCc1ccc(Cl)c(C(=O)Nc2ccnc3c(Nc4ccc(C(F)(F)F)cc4)nsc23)c1`, in assay [3], the pIC50 was 8.52. As for `CC(C)C(=O)NCc1ccc(Cl)c(-c2nc3cc(-c4ccc(C(F)(F)F)cc4)ccc3c(=O)[nH]2)c1`, the pIC50 in assay [3] is 8.15; in [7], 6.63; in [8], 8.00. As for `O=C(Nc1ccc2cnn(-c3ccc(Br)cc3)c(=O)c2c1)c1c(F)cccc1Cl`, in assay [3], the pIC50 is 6.75.

For the compound `CC(C)C(=O)NCc1ccc(Cl)c(-c2nc3cc(Cl)c(-c4ccncc4)cc3c(=O)[nH]2)c1`, the pIC50 in assay [3] was 6.32. For the compound `CC(C)C(=O)NCc1ccc(Cl)c(-c2nc3cc(Cl)c(N4CC[C@@H](O)C4)cc3c(=O)[nH]2)c1`, the inhibition amounted to 95% in assay [5] and 67% in [6]. Consider `COCc1nc2c(C(=O)Nc3cccc(Cl)c3C)cc(NC(=O)c3c(Cl)cccc3C(F)(F)F)cc2[nH]1`, for which the figures for the pIC50 in assay [10] and in assay [11] were 10.00 and 8.92, respectively. For the compound `CC(C)C(=O)NCc1cnc(C(F)F)c(-c2nc3cc(-c4ccc(C(F)(F)F)cc4)ccc3c(=O)[nH]2)c1`, the pIC50 was 8.22 in assay [3] and 7.48 in assay [8]. On to `CC(C)C(=O)NCc1ccc(Cl)c(-c2nc3cc(Cl)c(N4CCOCC4)cc3c(=O)[nH]2)c1`, for which, in assay [3], the pIC50 was 6.58. As to `CC(C)C(=O)NCc1ccc(Cl)c(-c2nc3cc(Cl)c(N4CCC(C(F)F)CC4)cc3c(=O)[nH]2)c1`, the pIC50 in [3] is 7.62. Turning to `CC(C)C(=O)NCc1ccc(Cl)c(-c2nc3cc(Cl)c(N4CCN(C)CC4)cc3c(=O)[nH]2)c1`, the results for the inhibition in assay [5] and in [6] were 75% and 41%, respectively. As for `CC(C)C(=O)NCc1ccc(Cl)c(-c2nc3cc(C(F)(F)F)ccc3c(=O)[nH]2)c1`, the pIC50 in assay [3] is 7.59. Turning to `COc1cc2c(=O)[nH]c(-c3cc(CNC(=O)C(C)C)ccc3Cl)nc2cc1Cl`, in assay [3], the pIC50 was 6.95. Still for that read-out and setting: for `CC(C)C(=O)NCc1ccc(Cl)c(-c2nc3cc(Br)ccc3c(=O)[nH]2)c1` the value was 7.44. For `CC(C)C(=O)NCc1ccc(Cl)c(-c2nc3cc(Cl)c(N4CCC(O)CC4)cc3c(=O)[nH]2)c1`, the negative-log IC50 (pIC50) in assay [3] is 6.15. With `CC(C)C(=O)NCc1ccc(Cl)c(-c2nc3cc(N)ccc3c(=O)[nH]2)c1`, the figures for the inhibition in assay [5] and in [6] were 70% and 16%, respectively. On to `CC(C)C(=O)NCc1ccc(Cl)c(-c2nc3cc(N4CCC(C(F)(F)F)CC4)ccc3c(=O)[nH]2)c1`, for which the pIC50 in assay [3] is 7.13.
